These results are taken from patent US10800792B2, “Inhibitors of Bruton's tyrosine kinase and method of their use” (JANSSEN PHARMACEUTICA NV, priority 2015, dated 2020).

The target in the assay is unphosphorylated-BTK kinase domain (UP-BTK), GST-tagged human BTK (389-659aa) (Homo sapiens (Human), UniProt Q06187). The experiment in a line: BTK kinase Lanthascreen binding assay. The settings on record: Lanthascreen tracer competition, 60 minutes incubation, pIC50 = negative log of the IC50 in molar. The method, boiled down:
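Tracer-displacement binding assay against the non-phosphorylated enzyme, read by Lanthascreen. Reported: pIC50.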
Background: TR-FRET usually uses a lanthanide donor and a delayed reading to cut background.

SMILES strings stand for the structures.

Sequence of unphosphorylated-BTK kinase domain (UP-BTK), GST-tagged human BTK (389-659aa) (Q06187 389-659): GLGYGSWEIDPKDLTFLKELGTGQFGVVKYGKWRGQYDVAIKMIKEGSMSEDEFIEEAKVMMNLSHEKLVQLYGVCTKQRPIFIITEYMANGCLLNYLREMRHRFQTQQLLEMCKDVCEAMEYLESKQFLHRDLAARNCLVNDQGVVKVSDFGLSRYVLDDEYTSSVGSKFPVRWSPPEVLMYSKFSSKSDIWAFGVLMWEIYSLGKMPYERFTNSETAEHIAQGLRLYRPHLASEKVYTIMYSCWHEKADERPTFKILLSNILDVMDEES

For the compound `CN[C@H](C)C(=O)N1CCC[C@@H](NC(=O)c2sc3nccc4c3c2NC(=O)N4c2ccc(Oc3ccccc3)cc2C)C1` [Example 848, 5-(2-Methyl-4-phenoxyphenyl)-N—((R)-1-((R)-2-(methylamino)propanol)piperidin-3-yl)-4-oxo-4,5-dihydro-3H-1-thia-3,5,8-triazaacenaphthylene-2-carboxamide], the “BTK_I_binding pIC50” value is 7.6.

For `Cc1cc(Oc2ccccc2)ccc1N1C(=O)Nc2c(C(=O)N[C@@H]3CCCN(C(=O)[C@H]4CCN4)C3)sc3nccc1c23` [Example 849, N—((R)-1-((R)-Azetidine-2-carbonyl)piperidin-3-yl)-5-(2-methyl-4-phenoxyphenyl)-4-oxo-4,5-dihydro-3H-1-thia-3,5,8-triazaacenaphthylene-2-carboxamide], the “BTK_I_binding pIC50” value is listed as 7.6.

With `Cc1cc(Oc2ccccc2)ccc1N1C(=O)Nc2c(C(=O)N[C@@H]3CCCN(C(=O)/C(C#N)=C/C4CC4)C3)sc3nccc1c23` [Example 850, (R,E)-N-(1-(2-Cano-3-cyclopropylacryloyl)piperidin-3-yl)-5-(2-methyl-4-phenoxyphenyl)-4-oxo-4,5-dihydro-3H-1-thia-3,5,8-triazaacenaphthylene-2-carboxamide], the “BTK_I_binding pIC50” value is 7.6.

Turning to `N#C/C(=C\C1CC1)C(=O)N1CCCC(NC(=O)c2sc3nccc4c3c2NC(=O)N4c2cccc(Oc3ccccc3)c2)C1` (stereo not shown) [Example 851, (E)-N-(1-(2-Cyano-3-cyclopropylacryloyl)piperidin-3-yl)-4-oxo-5-(3-phenoxyphenyl)-4,5-dihydro-3H-1-thia-3,5,8-triazaacenaphthylene-2-carboxamide], the “BTK_I_binding pIC50” value amounted to 7.5.

As to `Cc1cc(Oc2ccccc2)ccc1N1C(=O)Nc2c(C(=O)N[C@@H]3CCCN(C#N)C3)sc3nccc1c23` [Example 852, (R)—N-(1-Cyanopiperidin-3-yl)-5-(2-methyl-4-phenoxyphenyl)-4-oxo-4,5-dihydro-3H-1-thia-3,5,8-triazaacenaphthylene-2-carboxamide], under “read-out: BTK_I_binding pIC50 (converted)”, the IC50 is 31.6 nM.

Regarding `CN[C@@H](C)C(=O)N1CCC[C@@H](NC(=O)c2sc3nccc4c3c2NC(=O)N4c2ccc(Oc3ccccc3)cc2C)C1` [Example 853, 5-(2-Methyl-4-phenoxyphenyl)-N—((R)-1-((S)-2-(methylamino)propanol)piperidin-3-yl)-4-oxo-4,5-dihydro-3H-1-thia-3,5,8-triazaacenaphthylene-2-carboxamide], the “BTK_I_binding pIC50” value came out at 7.5.

As to `Cc1ccccc1N1C(=O)Nc2c(C(=O)N[C@@H]3CCCN(C(=O)/C(C#N)=C/C4CC4)C3)sc3nccc1c23` [Example 854, (R,E)-N-(1-(2-Cyano-3-cyclopropylacryloyl)piperidin-3-yl)-4-oxo-5-(o-tolyl)-4,5-dihydro-3H-1-thia-3,5,8-triazaacenaphthylene-2-carboxamide], the “BTK_I_binding pIC50” value came out at 7.5.

Regarding `Cc1cc(Oc2cccc(COc3ccccc3C#N)c2)ccc1N1C(=O)Nc2c(C(=O)NC3CCN(C)CC3)sc3nccc1c23` [Example 855, 5-(4-(3-((2-Cyanophenoxy)methyl)phenoxy)-2-methylphenyl)-N-(1-methylpiperidin-4-yl)-4-oxo-4,5-dihydro-3H-1-thia-3,5,8-triazaacenaphthylene-2-carboxamide], the “BTK_I_binding pIC50” value turned out to be 7.5.

On to `COc1ccccc1Oc1ccc(N2C(=O)Nc3c(C(=O)NC4CCCN(C(=O)/C(C#N)=C/C5CC5)C4)sc4nccc2c34)c(C)c1` (stereo not shown) [Example 856, (E)-N-(1-(2-Cyano-3-cyclopropylacryloyl)piperidin-3-yl)-5-(4-(2-methoxyphenoxy)-2-methylphenyl)-4-oxo-4,5-dihydro-3H-1-thia-3,5,8-triazaacenaphthylene-2-carboxamide], for which the “BTK_I_binding pIC50” value was determined as 7.5.

`Cc1cc(Oc2cccc(COc3ccccc3C#N)c2)ccc1N1C(=O)Nc2c(C(=O)NC3CCNCC3)sc3nccc1c23` [Example 857, 5-(4-(3-((2-Cyanophenoxy)methyl)phenoxy)-2-methylphenyl)-4-oxo-N-(piperidin-4-yl)-4,5-dihydro-3H-1-thia-3,5,8-triazaacenaphthylene-2-carboxamide]: the “BTK_I_binding pIC50” value turned out to be 7.5.

Regarding `Cc1cc(Oc2ccccc2)ccc1N1C(=O)Nc2c(C(=O)NC3CCN(C)CC3)sc3nccc1c23` [Example 858, 5-(2-Methyl-4-phenoxyphenyl)-N-(1-methylpiperidin-4-yl)-4-oxo-4,5-dihydro-3H-1-thia-3,5,8-triazaacenaphthylene-2-carboxamide], the “BTK_I_binding pIC50” value is reported as 7.5.

Regarding `Cc1ccc(Oc2ccccc2)cc1N1C(=O)Nc2c(C(=O)N[C@@H]3CCCN(C(=O)/C(C#N)=C/C4CC4)C3)sc3nccc1c23` [Example 859, (R,E)-N-(1-(2-Cyano-3-cyclopropylacryloyl)piperidin-3-yl)-5-(2-methyl-5-phenoxyphenyl)-4-oxo-4,5-dihydro-3H-1-thia-3,5,8-triazaacenaphthylene-2-carboxamide], the “BTK_I_binding pIC50” value stood at 7.4.

For `O=C(N[C@@H]1CCCNC1)c1sc2nccc3c2c1NC(=O)N3c1ccc(Oc2ccccc2)cc1` [Example 860, (R)-4-oxo-5-(4-phenoxyphenyl)-N-(piperidin-3-yl)-4,5-dihydro-3H-1-thia-3,5,8-triazaacenaphthylene-2-carboxamide], the “BTK_I_binding pIC50” value turned out to be 7.4.

Turning to `Cc1cc(Oc2cccc(COc3ccccc3C#N)c2)ccc1N1C(=O)Nc2c(C(=O)N[C@@H]3CCCN(C(=O)/C(C#N)=C/C4CC4)C3)sc3nccc1c23` [Example 861, (R,E)-N-(1-(2-Cyano-3-cyclopropylacryloyl)piperidin-3-yl)-5-(4-(3-((2-cyanophenoxy)methyl)phenoxy)-2-methylphenyl)-4-oxo-4,5-dihydro-3H-1-thia-3,5,8-triazaacenaphthylene-2-carboxamide], the “BTK_I_binding pIC50” value came out at 7.3.

For `COc1ccc(N2C(=O)Nc3c(C(=O)N[C@@H]4CCCN(C(=O)/C(C#N)=C/C5CC5)C4)sc4nccc2c34)c(C)c1` [Example 862, (R,E)-N-(1-(2-Cyano-3-cyclopropylacryloyl)piperidin-3-yl)-5-(4-methoxy-2-methylphenyl)-4-oxo-4,5-dihydro-3H-1-thia-3,5,8-triazaacenaphthylene-2-carboxamide], the “BTK_I_binding pIC50” value is on record as 7.3.

In the case of `C=CC(=O)N1CCC[C@H](NC(=O)c2sc3nccc4c3c2NC(=O)N4c2ccc(Oc3ccccc3)cc2C)C1` [Example 863, (S)—N-(1-Acryloylpiperidin-3-yl)-5-(2-methyl-4-phenoxyphenyl)-4-oxo-4,5-dihydro-3H-1-thia-3,5,8-triazaacenaphthylene-2-carboxamide], the “BTK_I_binding pIC50” value turned out to be 7.3.

On to `C=CC(=O)N1CC[C@H](NC(=O)c2sc3nccc4c3c2NC(=O)N4c2ccc(Oc3ccccc3)cc2C)C1` [Example 864, (S)—N-(1-Acryloylpyrrolidin-3-yl)-5-(2-methyl-4-phenoxyphenyl)-4-oxo-4,5-dihydro-3H-1-thia-3,5,8-triazaacenaphthylene-2-carboxamide], for which the “BTK_I_binding pIC50” value turned out to be 7.3.

In the case of `Cc1cc(Oc2ccccc2)ccc1N1C(=O)Nc2c(C(=O)NC3CCNCC3)sc3nccc1c23` [Example 865, 5-(2-Methyl-4-phenoxyphenyl)-4-oxo-N-(piperidin-4-yl)-4,5-dihydro-3H-1-thia-3,5,8-triazaacenaphthylene-2-carboxamide], the “BTK_I_binding pIC50” value is 7.3.

Consider `Cc1cc(Oc2ccccc2)ccc1N1C(=O)Nc2c(C(=O)N[C@@H]3CCCN(C(=O)/C=C/CN4CCCC4)C3)sc3nccc1c23` [Example 867, (R,E)-5-(2-Methyl-4-phenoxyphenyl)-4-oxo-N-(1-(4-(pyrrolidin-1-yl)but-2-enoyl)piperidin-3-yl)-4,5-dihydro-3H-1-thia-3,5,8-triazaacenaphthylene-2-carboxamide], for which the “BTK_I_binding pIC50” value was 7.3.

As for `Cc1cc(Oc2ccccc2)ccc1N1C(=O)Nc2c(C(=O)N[C@@H]3CCN(C(=O)/C(C#N)=C/C(C)(C)C)C3)sc3nccc1c23` [Example 868, (R,E)-N-(1-(2-Cyano-4,4-dimethylpent-2-enoyl)pyrrolidin-3-yl)-5-(2-methyl-4-phenoxyphenyl)-4-oxo-4,5-dihydro-3H-1-thia-3,5,8-triazaacenaphthylene-2-carboxamide], the “BTK_I_binding pIC50” value is 7.3.

`COc1ccccc1Oc1ccc(N2C(=O)Nc3c(C(=O)NC4CCCNC4)sc4nccc2c34)c(C)c1` (stereo not shown) [Example 870, 5-(4-(2-Methoxyphenoxy)-2-methylphenyl)-4-oxo-N-(piperidin-3-yl)-4,5-dihydro-3H-1-thia-3,5,8-triazaacenaphthylene-2-carboxamide]: the “BTK_I_binding pIC50” value amounted to 7.3.

Turning to `CCC(=O)N1CCC[C@@H](NC(=O)c2sc3nccc4c3c2NC(=O)N4c2ccc(Oc3ccccc3)cc2C)C1` [Example 871, (R)-5-(2-Methyl-4-phenoxyphenyl)-4-oxo-N-(1-propionylpiperidin-3-yl)-4,5-dihydro-3H-1-thia-3,5,8-triazaacenaphthylene-2-carboxamide], the “BTK_I_binding pIC50” value worked out at 7.3.

For the compound `Cc1cc(Oc2ccccc2)ccc1N1C(=O)Nc2c(C(=O)NC3CCN(C#N)CC3)sc3nccc1c23` [Example 872, N-(1-Cyanopiperidin-4-yl)-5-(2-methyl-4-phenoxyphenyl)-4-oxo-4,5-dihydro-3H-1-thia-3,5,8-triazaacenaphthylene-2-carboxamide], the “BTK_I_binding pIC50” value was found to be 7.2.

Take `Cc1cc(Oc2ccccc2)ccc1N1C(=O)Nc2c(C(=O)N[C@@H]3CCCN(C)C3)sc3nccc1c23` [Example 873, (R)-5-(2-Methyl-4-phenoxyphenyl)-N-(1-methylpiperidin-3-yl)-4-oxo-4,5-dihydro-3H-1-thia-3,5,8-triazaacenaphthylene-2-carboxamide]: the “BTK_I_binding pIC50” value was 6.9.

With `Cc1cc(Oc2ccccc2)ccc1N1C(=O)Nc2c(C(=O)N[C@@H]3CCCN(C(=O)[C@H]4CCCN4)C3)sc3nccc1c23` [Example 876, 5-(2-Methyl-4-phenoxyphenyl)-4-oxo-N—((R)-1-((R)-pyrrolidine-2-carbonyl)piperidin-3-yl)-4,5-dihydro-3H-1-thia-3,5,8-triazaacenaphthylene-2-carboxamide], the “BTK_I_binding pIC50” value was found to be 7.1.
